From PubChem BioAssay AID2060884 (Molecular Pharmacology Branch, DTP, NCI, 2025)
pIC50: −log10 of the molar value.

System: NCI-H929 complex spheroids, viability % test/control
Test: Anticancer human tumor NCI-H929 cell line growth inhibition [RAS];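 also: compound exposure lasted seven days before viability was read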;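 as to viability, T/C: 100% = DMSO vehicle control viability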
Conditions: for pIC50: curve of first compound; for viability, T/C: stronger effect = lower value
In short: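 Multi-cell-type spheroids: tumor cells plus HUVEC endothelial cells and mesenchymal stem cells. RAS-pathway inhibitors were combined with targeted agents, each dosed in half-log steps down from clinical Cmax, or from 10 microM when Cmax was unknown.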

## CC1(C)CCC(Nc2ncc(C(F)(F)F)c(-c3c[nH]c4c(P(C)(C)=O)c(C#N)ccc34)n2)CN1 (centres undefined) + CCn1c(-c2cc(N3CCN(C)CC3)cnc2C(C)OC)c2c3cc(ccc31)-c1csc(n1)CC(NC(=O)C1CC1C)C(=O)N1CCCC(N1)C(=O)OCC(C)(C)C2
Second compound 0.000949 µM
  pIC50: 8.65
Second compound 0.003 µM
  pIC50: 8.60
Second compound 0.00949 µM
  pIC50: 8.71
Second compound 0.03 µM
  pIC50: > 9.02
Second compound 0.0949 µM
  pIC50: > 9.02
Second compound 0.3 µM
  pIC50: > 9.02
Second compound 0.000949 µM, first compound 0.000949 µM
  viability, T/C: 116%
Second compound 0.000949 µM, first compound 0.003 µM
  viability, T/C: 26.9%
Second compound 0.000949 µM, first compound 0.00949 µM
  viability, T/C: 8.16%
Second compound 0.000949 µM, first compound 0.03 µM
  viability, T/C: 6.16%
Second compound 0.000949 µM, first compound 0.0949 µM
  viability, T/C: 4.71%
Second compound 0.000949 µM, first compound 0.3 µM
  viability, T/C: 3.65%
Second compound 0.003 µM, first compound 0.000949 µM
  viability, T/C: 112%
Second compound 0.003 µM, first compound 0.003 µM
  viability, T/C: 39.4%
Second compound 0.003 µM, first compound 0.00949 µM
  viability, T/C: 10.1%
Second compound 0.003 µM, first compound 0.03 µM
  viability, T/C: 7.4%
Second compound 0.003 µM, first compound 0.0949 µM
  viability, T/C: 5.4%
Second compound 0.003 µM, first compound 0.3 µM
  viability, T/C: 4.64%
Second compound 0.00949 µM, first compound 0.000949 µM
  viability, T/C: 91.8%
Second compound 0.00949 µM, first compound 0.003 µM
  viability, T/C: 24.4%
Second compound 0.00949 µM, first compound 0.00949 µM
  viability, T/C: 8.42%
Second compound 0.00949 µM, first compound 0.03 µM
  viability, T/C: 5.44%
Second compound 0.00949 µM, first compound 0.0949 µM
  viability, T/C: 5.01%
Second compound 0.00949 µM, first compound 0.3 µM
  viability, T/C: 4.22%
Second compound 0.03 µM, first compound 0.000949 µM
  viability, T/C: 16.8%
Second compound 0.03 µM, first compound 0.003 µM
  viability, T/C: 5.53%
Second compound 0.03 µM, first compound 0.00949 µM
  viability, T/C: 2.91%
Second compound 0.03 µM, first compound 0.03 µM
  viability, T/C: 2.43%
Second compound 0.03 µM, first compound 0.0949 µM
  viability, T/C: 1.95%
Second compound 0.03 µM, first compound 0.3 µM
  viability, T/C: 1.14%
Second compound 0.0949 µM, first compound 0.000949 µM
  viability, T/C: 2.94%
Second compound 0.0949 µM, first compound 0.003 µM
  viability, T/C: 1.38%
Second compound 0.0949 µM, first compound 0.00949 µM
  viability, T/C: 1.46%
Second compound 0.0949 µM, first compound 0.03 µM
  viability, T/C: 0.67%
Second compound 0.0949 µM, first compound 0.0949 µM
  viability, T/C: 0.66%
Second compound 0.0949 µM, first compound 0.3 µM
  viability, T/C: 0.53%
Second compound 0.3 µM, first compound 0.000949 µM
  viability, T/C: 1.65%
Second compound 0.3 µM, first compound 0.003 µM
  viability, T/C: 0.63%
Second compound 0.3 µM, first compound 0.00949 µM
  viability, T/C: 0.85%
Second compound 0.3 µM, first compound 0.03 µM
  viability, T/C: 1.47%
Second compound 0.3 µM, first compound 0.0949 µM
  viability, T/C: 0.57%
Second compound 0.3 µM, first compound 0.3 µM
  viability, T/C: 0.6%

## CCc1c2c(nc3ccc(O)cc13)-c1cc3c(c(=O)n1C2)COC(=O)[C@]3(O)CC + C#Cc1c(F)ccc2cc(O)cc(-c3ncc4c(N5CC6CCC(C5)N6)nc(OCC56CCCN5CC(F)C6)nc4c3F)c12
Second compound 0.0316 µM
  pIC50: 8.73
Second compound 0.1 µM
  pIC50: 8.71
Second compound 0.316 µM
  pIC50: 8.74
Second compound 1 µM
  pIC50: 8.73
Second compound 3.16 µM
  pIC50: 8.74
Second compound 10 µM
  pIC50: 8.77
Second compound 0.0316 µM, first compound 0.000949 µM
  viability, T/C: 107%
Second compound 0.0316 µM, first compound 0.003 µM
  viability, T/C: 11.1%
Second compound 0.0316 µM, first compound 0.00949 µM
  viability, T/C: 1.08%
Second compound 0.0316 µM, first compound 0.03 µM
  viability, T/C: 1.06%
Second compound 0.0316 µM, first compound 0.0949 µM
  viability, T/C: 2.09%
Second compound 0.0316 µM, first compound 0.3 µM
  viability, T/C: 1.3%
Second compound 0.1 µM, first compound 0.000949 µM
  viability, T/C: 103%
Second compound 0.1 µM, first compound 0.003 µM
  viability, T/C: 19%
Second compound 0.1 µM, first compound 0.00949 µM
  viability, T/C: 1.39%
Second compound 0.1 µM, first compound 0.03 µM
  viability, T/C: 3.06%
Second compound 0.1 µM, first compound 0.0949 µM
  viability, T/C: 2.48%
Second compound 0.1 µM, first compound 0.3 µM
  viability, T/C: 0.71%
Second compound 0.316 µM, first compound 0.000949 µM
  viability, T/C: 103%
Second compound 0.316 µM, first compound 0.003 µM
  viability, T/C: 10.5%
Second compound 0.316 µM, first compound 0.00949 µM
  viability, T/C: 1.36%
Second compound 0.316 µM, first compound 0.03 µM
  viability, T/C: 2.4%
Second compound 0.316 µM, first compound 0.0949 µM
  viability, T/C: 1.35%
Second compound 0.316 µM, first compound 0.3 µM
  viability, T/C: 1.02%
Second compound 1 µM, first compound 0.000949 µM
  viability, T/C: 104%
Second compound 1 µM, first compound 0.003 µM
  viability, T/C: 11.1%
Second compound 1 µM, first compound 0.00949 µM
  viability, T/C: 1.18%
Second compound 1 µM, first compound 0.03 µM
  viability, T/C: 1.37%
Second compound 1 µM, first compound 0.0949 µM
  viability, T/C: 0.94%
Second compound 1 µM, first compound 0.3 µM
  viability, T/C: 0.76%
Second compound 3.16 µM, first compound 0.000949 µM
  viability, T/C: 104%
Second compound 3.16 µM, first compound 0.003 µM
  viability, T/C: 9.19%
Second compound 3.16 µM, first compound 0.00949 µM
  viability, T/C: 2.65%
Second compound 3.16 µM, first compound 0.03 µM
  viability, T/C: 1.69%
Second compound 3.16 µM, first compound 0.0949 µM
  viability, T/C: 1.26%
Second compound 3.16 µM, first compound 0.3 µM
  viability, T/C: 0.49%
Second compound 10 µM, first compound 0.000949 µM
  viability, T/C: 92%
Second compound 10 µM, first compound 0.003 µM
  viability, T/C: 9.27%
Second compound 10 µM, first compound 0.00949 µM
  viability, T/C: 1.7%
Second compound 10 µM, first compound 0.03 µM
  viability, T/C: 1.05%
Second compound 10 µM, first compound 0.0949 µM
  viability, T/C: 1.19%
Second compound 10 µM, first compound 0.3 µM
  viability, T/C: 0.41%
